Experiment [1] relates to Dlxi1/2b::eGFP+ cells in fused hSS-hCS. Kind of experiment: Live imaging of interneuron migration in fused hSS-hCS (control). Format: cell-based, human. The settings on record: 100 nM, before vs after exposure. The procedure:
Live imaging and analysis of Dlxi1/2b::eGFP+ cell migration. The migration of Dlxi1/2b::eGFP+ cells was imaged for 8-12 hrs under environmentally controlled conditions (37° C., 5% CO2) in intact, fused hSS-hCS using a confocal microscope with a motorized stage (Leica SP8). Fused hSS-hCS were transferred to a well of a 96-well plate (glass-bottom plates, Corning) in 200 μl of NM. Spheroids were incubated in the environmentally controlled chamber for 30-60 min prior to imaging. During a given recording session, up to 8 fused hSS-hCS were imaged at a depth of 50-150 μm depth and a rate of 15-20 min/frame. For pharmacological manipulation, cells were imaged for 12 hrs to record a baseline. Then, the media was carefully removed and new media with small molecules (AMD3100 at 100 nM; nimodipine at 5 μM; or roscovitine at 15 μM) was gently added to the well. The field of view was readjusted to capture the previous region of interest and cells in fused hSS-hCS were imaged for an additional 12 hrs. For imaging of Dlxi1/2b::eGFP+ cells, E17-E18 slices were placed on inserts and infected with Dlxi1/2b::eGFP lentivirus after 24 hrs. The slices were imaged 2 days later using a Leica SP8 confocal microscope (see above). For measuring the branch to soma length ratio of human cells on mouse slices, hSSs infected with Dlxi1/2b::eGFP lentivirus were dissociated and placed on top of E13-14 mouse slices, which were placed on cell culture inserts 8-24 hrs before. The hSS-derived Dlxi1/2b::eGFP+ cells were imaged with the Leica SP8 confocal microscope system at least 48 hrs later. The migration of mouse Dlxi1/2b::eGFP+ cells or Cav1.2-electroporated cells and the migration of human fetal Dlxi1/2b::eG FP-infected cells both imaged using the same setting as described for intact, fused hSS-hCS. Slices were kept on the cell culture inserts during imaging. For quantification of migration of Dlxi1/2b::eGFP+ cells after plating on coverslips, intact hSS were plated on Poly-ornithine/laminin (Sigma) coated glass coverslips (15 mm; Werner). Cells were imaged 7-10 days after using a confocal microscope (Leica SP8) as described above. ImageJ and the Chemotaxis & Migration Tool (Ibidi) were used for the post-acquisition analysis of cell mobility. The StackReg plugin in ImageJ was used to correct for minor drifts during imaging. To estimate the length of individual saltations, Dlxi1/2b::eGFP cells displaying a swelling of the soma were identified, and distance (in μm) to the new position of the soma following nucleokinesis was recorded manually. The time necessary for this movement was used to calculate the speed when mobile. […] Path directness was calculated as the E/A ratio. […]

The target of experiment [2] is element-binding protein (CBP) (Homo sapiens, UniProt Q92793). The settings on record: cited from earlier work.
The subject of experiment [3] is Wnt processing and secretion. As to conditions: cell-free assay; read-out: IC50, inhibition of Wnt processing and secretion; cited from earlier work.
The next experiment concerns the target T1, Porcn (Homo sapiens, UniProt Q9H237).
T1 sequence (Q9H237 1-461): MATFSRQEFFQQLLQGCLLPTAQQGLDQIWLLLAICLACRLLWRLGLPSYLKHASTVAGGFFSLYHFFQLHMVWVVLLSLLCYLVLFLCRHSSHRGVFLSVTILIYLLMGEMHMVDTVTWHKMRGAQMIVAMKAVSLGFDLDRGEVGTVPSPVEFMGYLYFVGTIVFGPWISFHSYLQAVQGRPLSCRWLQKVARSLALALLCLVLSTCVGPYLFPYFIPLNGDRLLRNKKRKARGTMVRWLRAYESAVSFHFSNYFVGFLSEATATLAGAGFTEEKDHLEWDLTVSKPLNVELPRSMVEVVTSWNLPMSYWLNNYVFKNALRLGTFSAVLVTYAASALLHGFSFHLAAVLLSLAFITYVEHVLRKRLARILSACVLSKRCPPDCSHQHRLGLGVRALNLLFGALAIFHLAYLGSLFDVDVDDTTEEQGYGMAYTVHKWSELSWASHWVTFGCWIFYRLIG
The settings on record: read-out: EC50, Porcn inhibition; cited from earlier work.

A further experiment has as its system Wnt signaling. As to conditions: TM3 cells; read-out: IC50, inhibition of Wnt signaling; cited from earlier work.
The target in the next experiment is Smo (Homo sapiens, UniProt Q99835). The settings on record: read-out: KD, Smo heptahelical domain; cited from earlier work.
The target of another experiment is T2, TNKS2 (Homo sapiens, UniProt Q9H2K2).
T2 sequence (Q9H2K2 1-1166): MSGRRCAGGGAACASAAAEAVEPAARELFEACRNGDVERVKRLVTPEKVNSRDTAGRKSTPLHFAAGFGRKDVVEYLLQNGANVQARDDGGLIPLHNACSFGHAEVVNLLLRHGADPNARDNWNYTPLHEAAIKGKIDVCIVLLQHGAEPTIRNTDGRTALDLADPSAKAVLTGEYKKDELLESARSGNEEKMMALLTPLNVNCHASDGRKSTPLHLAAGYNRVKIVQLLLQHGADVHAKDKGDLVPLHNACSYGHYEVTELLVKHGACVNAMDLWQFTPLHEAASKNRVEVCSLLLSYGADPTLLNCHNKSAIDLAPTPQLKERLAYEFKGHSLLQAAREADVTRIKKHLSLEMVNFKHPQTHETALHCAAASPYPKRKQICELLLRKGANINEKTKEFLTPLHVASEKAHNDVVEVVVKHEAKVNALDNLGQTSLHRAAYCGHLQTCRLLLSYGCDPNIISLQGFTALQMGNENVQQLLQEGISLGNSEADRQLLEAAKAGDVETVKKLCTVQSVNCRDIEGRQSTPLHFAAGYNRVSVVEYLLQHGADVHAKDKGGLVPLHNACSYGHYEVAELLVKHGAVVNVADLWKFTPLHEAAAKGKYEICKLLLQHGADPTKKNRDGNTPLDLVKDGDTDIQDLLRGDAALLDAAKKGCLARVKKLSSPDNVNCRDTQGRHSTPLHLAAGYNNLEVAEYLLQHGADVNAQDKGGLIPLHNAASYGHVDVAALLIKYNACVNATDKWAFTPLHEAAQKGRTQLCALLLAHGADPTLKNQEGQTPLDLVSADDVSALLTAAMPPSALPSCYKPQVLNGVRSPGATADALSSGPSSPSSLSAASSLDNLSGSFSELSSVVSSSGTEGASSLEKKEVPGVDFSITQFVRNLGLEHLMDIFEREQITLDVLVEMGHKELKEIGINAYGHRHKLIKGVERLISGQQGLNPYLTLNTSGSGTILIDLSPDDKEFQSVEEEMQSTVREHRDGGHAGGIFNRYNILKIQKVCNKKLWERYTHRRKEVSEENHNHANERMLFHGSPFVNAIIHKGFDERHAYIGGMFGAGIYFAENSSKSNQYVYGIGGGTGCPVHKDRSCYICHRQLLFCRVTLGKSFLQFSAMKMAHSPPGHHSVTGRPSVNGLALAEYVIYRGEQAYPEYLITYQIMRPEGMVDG
As to conditions: cited from earlier work.

Experiment [4] concerns the target Wnt3A-mediated activation of a multimerized TCF-binding site driving luciferase. The settings on record: HEK293 cells; cited from earlier work.
Experiment [5] deals with hSS. Nature of the experiment: Fluo-4 calcium imaging in intact hSS. The settings on record: 7 days AlloP 100 nM combined with 3-day retinoic acid 100 nM (hSS-ISRA); ~day 50; P=0.006.
Description: The generation of hCS from hiPSC was performed as previously described. […] For the generation of hSS, the medium was supplemented with additional small molecules during the first 23 days in culture; a schematic showing the recipes is presented in FIG. 8a). […] IWP-2 (5 μM; Selleckchem) from day 4 until day 24, and the SHH pathway agonist SAG (smoothened agonist; 100 nM; Selleckchem) from day 12 to day 24. The hSS-ISA condition also included IWP2 and SAG with the addition of allopregnanolone (AlloP 100 nM; Cayman Chemicals) from day 15 to day 23, while the hSS-ISRA condition included AlloP (100 nM) from day 15-23, and a brief exposure (day 12-15) to retinoic acid (RA 100 nM; Sigma). From day 25 to 42, the NM for both the hCS and hSS conditions, was supplemented with the growth factors BDNF (20 ng/ml; Peprotech) and NT3 (20 ng/ml; Peprotech) with medium changes every other day. From day 43 onwards, hCS and hSS were maintained in unsupplemented NM with medium changes every four to six days.
Fluo-4 calcium imaging in intact hSS. […] Spontaneous calcium activity was recorded for 10 min (one frame every 8-10 s) in one 10 μm z-stack plane. Fluorescence intensity (F) was exported as mean gray values in ImageJ. Signal decay was controlled by subtracting the mean fluorescence of the background (Fb). […]
Experiment [6] deals with hSS. Nature of the experiment: Characterization of hSS differentiation conditions (RT-qPCR, immunostaining). As to conditions: AlloP with or without RA (hSS-ISA, hSS-ISRA).
Description: For the generation of hSS, the medium was supplemented with additional small molecules during the first 23 days in culture; a schematic showing the recipes is presented in FIG. 8a). […] IWP-2 (5 μM; Selleckchem) from day 4 until day 24, and the SHH pathway agonist SAG (smoothened agonist; 100 nM; Selleckchem) from day 12 to day 24. The hSS-ISA condition also included IWP2 and SAG with the addition of allopregnanolone (AlloP 100 nM; Cayman Chemicals) from day 15 to day 23, while the hSS-ISRA condition included AlloP (100 nM) from day 15-23, and a brief exposure (day 12-15) to retinoic acid (RA 100 nM; Sigma). From day 25 to 42, the NM for both the hCS and hSS conditions, was supplemented with the growth factors BDNF (20 ng/ml; Peprotech) and NT3 (20 ng/ml; Peprotech) with medium changes every other day. From day 43 onwards, hCS and hSS were maintained in unsupplemented NM with medium changes every four to six days.
Immunohistochemistry. Cryosections were washed with PBS to remove excess OCT and blocked in 10% goat serum (NGS), 0.3% Triton X-100 diluted in PBS for 1 hr at room temperature. […]
Real time quantitative PCR (qPCR). mRNA was isolated using the RNeasy Mini Kit and RNase-Free DNase set (Qiagen), and template cDNA was prepared by reverse transcription using the SuperScript III First-Strand Synthesis SuperMix for qRT-PCR (Life Technologies). […]
For experiment [7], the system named is Dlxi1/2b::eGFP cells that migrated into hCS. As to conditions: 10 μM; fused hSS-hCS slices. How it is done:
(§1) Electrophysiology. […] Slicing was performed using a Leica VT1200 vibratome. Immediately after sectioning, slices were moved to a circulation chamber containing ACSF at 32° C.
(§2) For patch-clamp recording, cells were identified by the presence of a fluorescent reporter using an upright Axoscop II microscope (Zeiss). […] Cl− reversal was calculated to be at −91 mV according to the Nernst equation. […] The Cl− reversal potential was calculated to be 0 mV according to the Nernst equation. IPSCs were blocked by application of the GABAA receptor antagonist gabazine (10 μM, Abcam), which was added to superfused ACSF. EPSCs were blocked by application of the glutamate receptor antagonist kynurenic acid (1 mM, Abcam), which was added to superfused ACSF. Electrical simulation was delivered using a bipolar tungsten electrode (FHS) placed […] away from a recorded neuron. Stimulations were delivered to slices for 0.1 ms at […] and separated by at least 10 s. Inward EPSCs and outward IPSPs were recorded by filling the patch pipette with a low chloride internal solution (ECI−=−90 mV) and holding the cell at −40 mV, which is the midpoint between ECI− and EK+/Na+. […] Recordings were filtered at 10 kHz. Synaptic recordings were analyzed using custom software developed by J. R. H. (Wdetecta).

Another experiment has as its system neurons in hSS. As to conditions: 10 μM; 250 μm sections of hSS. The procedure:
as §1, §2

In a further experiment the test system is hCS neurons. Kind of experiment: Patch clamp recording of EPSCs in sliced hCS. It is filed as cell-based, human. As to conditions: 1 mM, added to superfused ACSF. The procedure: Electrophysiology. […] Slicing was performed using a Leica VT1200 vibratome. […] Recordings were filtered at 10 kHz. […] Action potentials were analyzed using custom MATLAB (MathWorks) programs.
For orientation: In patch-clamp work, channel activity is measured electrically.

Experiment [8] deals with TS Dlxi1/2b::eGFP+ cells in fused hSS-hCS. Kind of experiment: Live imaging of interneuron migration in fused hSS-hCS from Timothy syndrome. Format: cell-based, human. The settings on record: 15 μM, P<0.001. How it is done:
Live imaging and analysis of Dlxi1/2b::eGFP+ cell migration. The migration of Dlxi1/2b::eGFP+ cells was imaged for 8-12 hrs under environmentally controlled conditions (37° C., 5% CO2) in intact, fused hSS-hCS using a confocal microscope with a motorized stage (Leica SP8). Fused hSS-hCS were transferred to a well of a 96-well plate (glass-bottom plates, Corning) in 200 μl of NM. Spheroids were incubated in the environmentally controlled chamber for 30-60 min prior to imaging. During a given recording session, up to 8 fused hSS-hCS were imaged at a depth of 50-150 μm depth and a rate of 15-20 min/frame. For pharmacological manipulation, cells were imaged for 12 hrs to record a baseline. […] The field of view was readjusted to capture the previous region of interest and cells in fused hSS-hCS were imaged for an additional 12 hrs. […] For quantification of migration of Dlxi1/2b::eGFP+ cells after plating on coverslips, intact hSS were plated on Poly-ornithine/laminin (Sigma) coated glass coverslips (15 mm; Werner). […] To estimate the length of individual saltations, Dlxi1/2b::eGFP cells displaying a swelling of the soma were identified, and distance (in μm) to the new position of the soma following nucleokinesis was recorded manually. […] Path directness was calculated as the E/A ratio. […]

Structures are written as SMILES. pEC50, pIC50, pKd: −log10 of the molar value.

A word on the pIC50: it is −log10 of the IC50, conventionally taken in molar units. A word on the pEC50: it is −log10 of the EC50, conventionally taken in molar units. Broadly, the pKd is the Kd on a negative log10 scale, so that one unit is a factor of ten.

Chain of Smo (Q99835 28-787): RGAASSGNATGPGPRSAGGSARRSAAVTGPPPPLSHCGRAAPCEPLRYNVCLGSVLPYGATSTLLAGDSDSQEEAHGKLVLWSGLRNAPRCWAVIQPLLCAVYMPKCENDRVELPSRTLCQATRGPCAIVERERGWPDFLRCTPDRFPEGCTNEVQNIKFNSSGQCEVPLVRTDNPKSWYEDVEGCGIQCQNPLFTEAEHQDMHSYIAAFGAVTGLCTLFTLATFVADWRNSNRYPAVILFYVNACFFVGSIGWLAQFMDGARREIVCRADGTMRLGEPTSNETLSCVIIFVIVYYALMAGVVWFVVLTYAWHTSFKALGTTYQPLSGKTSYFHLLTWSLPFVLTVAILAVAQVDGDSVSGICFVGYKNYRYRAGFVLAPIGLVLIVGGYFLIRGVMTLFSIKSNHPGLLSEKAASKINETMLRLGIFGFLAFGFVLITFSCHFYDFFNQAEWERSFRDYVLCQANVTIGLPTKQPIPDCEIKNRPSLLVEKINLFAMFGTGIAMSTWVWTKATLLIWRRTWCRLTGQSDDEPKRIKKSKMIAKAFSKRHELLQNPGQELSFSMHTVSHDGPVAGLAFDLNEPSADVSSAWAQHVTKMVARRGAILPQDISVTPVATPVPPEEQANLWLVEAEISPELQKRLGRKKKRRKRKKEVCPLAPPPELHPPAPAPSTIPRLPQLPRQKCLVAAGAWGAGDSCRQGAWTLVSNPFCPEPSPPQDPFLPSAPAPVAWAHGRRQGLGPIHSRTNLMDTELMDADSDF
Chain of element-binding protein (CBP) (Q92793 whole entry): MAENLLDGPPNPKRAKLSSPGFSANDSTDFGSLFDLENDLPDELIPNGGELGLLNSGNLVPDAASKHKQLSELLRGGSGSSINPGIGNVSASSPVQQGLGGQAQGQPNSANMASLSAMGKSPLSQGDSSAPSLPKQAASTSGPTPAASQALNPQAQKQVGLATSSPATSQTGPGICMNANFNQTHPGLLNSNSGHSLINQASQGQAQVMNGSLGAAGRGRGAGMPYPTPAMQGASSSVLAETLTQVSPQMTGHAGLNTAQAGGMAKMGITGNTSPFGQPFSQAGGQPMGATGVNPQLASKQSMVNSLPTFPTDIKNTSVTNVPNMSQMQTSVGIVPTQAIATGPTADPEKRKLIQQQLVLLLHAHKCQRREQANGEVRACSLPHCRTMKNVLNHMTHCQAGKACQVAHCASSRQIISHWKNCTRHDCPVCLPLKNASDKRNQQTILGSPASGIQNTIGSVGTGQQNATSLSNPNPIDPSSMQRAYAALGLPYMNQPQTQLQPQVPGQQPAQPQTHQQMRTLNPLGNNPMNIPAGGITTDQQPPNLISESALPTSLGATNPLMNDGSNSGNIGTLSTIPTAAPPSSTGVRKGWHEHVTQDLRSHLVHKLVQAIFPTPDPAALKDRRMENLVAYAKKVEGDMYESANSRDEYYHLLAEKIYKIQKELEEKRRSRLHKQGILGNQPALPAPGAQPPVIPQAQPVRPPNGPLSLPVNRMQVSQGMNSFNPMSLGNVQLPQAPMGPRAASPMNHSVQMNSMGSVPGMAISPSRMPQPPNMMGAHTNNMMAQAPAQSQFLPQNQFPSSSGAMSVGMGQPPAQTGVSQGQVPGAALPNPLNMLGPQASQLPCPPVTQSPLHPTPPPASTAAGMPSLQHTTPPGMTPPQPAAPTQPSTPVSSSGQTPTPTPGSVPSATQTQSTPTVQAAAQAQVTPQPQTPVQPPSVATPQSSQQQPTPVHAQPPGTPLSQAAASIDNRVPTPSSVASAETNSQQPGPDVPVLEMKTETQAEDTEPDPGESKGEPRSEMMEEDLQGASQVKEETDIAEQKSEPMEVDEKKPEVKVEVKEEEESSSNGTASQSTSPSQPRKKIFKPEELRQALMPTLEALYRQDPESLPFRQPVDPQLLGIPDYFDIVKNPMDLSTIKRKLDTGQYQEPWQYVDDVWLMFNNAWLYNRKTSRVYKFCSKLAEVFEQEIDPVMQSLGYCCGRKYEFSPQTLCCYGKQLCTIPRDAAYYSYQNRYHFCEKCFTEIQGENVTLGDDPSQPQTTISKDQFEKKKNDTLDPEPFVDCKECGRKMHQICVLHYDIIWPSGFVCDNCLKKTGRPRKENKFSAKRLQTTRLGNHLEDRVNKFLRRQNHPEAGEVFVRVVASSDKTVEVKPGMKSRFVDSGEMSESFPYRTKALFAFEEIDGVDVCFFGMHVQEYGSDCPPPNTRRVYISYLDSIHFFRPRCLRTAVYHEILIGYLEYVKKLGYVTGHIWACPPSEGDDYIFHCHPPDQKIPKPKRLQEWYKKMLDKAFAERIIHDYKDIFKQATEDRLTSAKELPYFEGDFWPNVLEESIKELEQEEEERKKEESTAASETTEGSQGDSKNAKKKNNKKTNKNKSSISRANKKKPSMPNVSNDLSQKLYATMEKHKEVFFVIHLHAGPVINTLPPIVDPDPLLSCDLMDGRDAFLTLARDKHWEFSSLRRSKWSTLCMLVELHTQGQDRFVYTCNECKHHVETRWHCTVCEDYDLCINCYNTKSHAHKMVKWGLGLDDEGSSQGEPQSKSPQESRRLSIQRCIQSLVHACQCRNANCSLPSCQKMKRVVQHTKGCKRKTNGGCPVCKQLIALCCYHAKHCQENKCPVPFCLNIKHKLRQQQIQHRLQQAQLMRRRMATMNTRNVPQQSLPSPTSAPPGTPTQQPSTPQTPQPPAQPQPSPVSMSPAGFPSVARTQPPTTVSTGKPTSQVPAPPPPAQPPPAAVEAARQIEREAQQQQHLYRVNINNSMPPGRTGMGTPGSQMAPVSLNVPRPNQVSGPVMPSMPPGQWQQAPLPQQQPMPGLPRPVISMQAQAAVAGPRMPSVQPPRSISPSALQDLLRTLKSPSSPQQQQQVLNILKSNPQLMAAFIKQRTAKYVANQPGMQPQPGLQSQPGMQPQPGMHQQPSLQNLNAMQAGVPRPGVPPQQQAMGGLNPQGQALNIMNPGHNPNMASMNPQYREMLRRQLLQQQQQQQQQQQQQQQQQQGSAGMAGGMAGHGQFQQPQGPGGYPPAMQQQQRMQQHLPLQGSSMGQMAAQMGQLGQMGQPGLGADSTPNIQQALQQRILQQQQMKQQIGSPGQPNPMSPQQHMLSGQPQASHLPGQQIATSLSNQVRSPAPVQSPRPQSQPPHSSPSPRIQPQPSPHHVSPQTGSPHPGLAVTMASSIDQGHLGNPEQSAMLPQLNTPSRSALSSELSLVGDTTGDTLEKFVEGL

With `c1cc(CN2CCCNCCNCCCNCC2)ccc1CN1CCCNCCNCCCNCC1` [AMD3100], in experiment [1] (P=0.006), the saltation length entry is listed as “significant reduction” and the speed when mobile entry was “significant reduction”. Besides, in [1] (P=0.02), the path directness entry is recorded as “change”. Besides, the frequency of saltations result in [1] (P=0.03) is on record as “significant reduction”. In the case of `O=C1[C@H](Cc2ccc(O)cc2)N2C(=O)CCN(C(=O)NCc3ccccc3)[C@H]2CN1Cc1cccc2ccccc12` [ICG-001], the pIC50 in experiment [2] was 5.52. For the compound `Cc1ccc2nc(NC(=O)CSc3nc4c(c(=O)n3-c3ccccc3)SCC4)sc2c1` [IWP-2], the pIC50 in experiment [3] was 7.57. Turning to `O=C(CSc1nc2c(c(=O)n1-c1ccccc1)SCC2)Nc1ccc(-c2ccccc2)cn1` [IWP-L6], at Porcn, the pEC50 was 9.30. As for `Cc1cc(-c2ncc(CC(=O)Nc3ccc(-c4cnccn4)cn3)cc2C)ccn1` [LGK-974], the negative-log IC50 (pIC50) in the experiment on Wnt signaling is 9.40. In the case of `CNC1CCC(N(Cc2cccc(-c3ccncc3)c2)C(=O)c2sc3ccccc3c2Cl)CC1` (centres unmarked) [SAG], the pKd at Smo is 7.23. For `COc1ccc(-n2c(SCCCN3C(=O)c4cccc5cccc(c45)C3=O)nnc2-c2ccncc2)cc1` [WIKI4], the negative logarithm of the IC50 (pIC50) on TNKS2 is 7.82. As for `Cc1cc(-c2ccc(CC(=O)Nc3ccc(-c4cccnc4)cc3)cc2)ccn1` [Wnt-059], the pIC50 in experiment [4] was 10.13. Regarding `CC(=O)[C@H]1CC[C@H]2[C@@H]3CC[C@H]4C[C@H](O)CC[C@]4(C)[C@H]3CC[C@]12C` [allopregnanolone], in the experiment on hSS [5], the “frequency of spontaneous calcium spikes” value was “significantly increased”. The “subpallial fate, neurotransmitter identity and GABAergic subtypes in hSS” value in the experiment on hSS [6] is given as “did not alter”. For the compound `COc1ccc(-c2ccc(=N)n(CCCC(=O)O)n2)cc1` [gabazine], the “evoked disynaptic IPSCs after electrical stimulation” value in [7] is “sensitive”. Besides, in the experiment on neurons in hSS, the “spontaneous inhibitory postsynaptic responses (sIPSCs)” value is on record as “abolished”.

Regarding `O=C(O)c1cc(=O)c2ccccc2[nH]1` [kynurenic acid], in the experiment on hCS neurons, the EPSCs entry is reported as “blocked”. As for `CC[C@H](CO)Nc1nc(NCc2ccccc2)c2ncn(C(C)C)c2n1` [roscovitine], in experiment [8], the saltation length result is “rescuing”.
